Nine compounds from patent US10703748B2, “Diazanaphthalen-3-yl carboxamides and preparation and use thereof” (Samumed, LLC, priority 2017, dated 2020) can be followed below.

One may read the EC50 as the concentration giving half of the maximal effect.

The structures appear in SMILES notation.

In experiment [1] the test system is Tau phosphorylation at Threonine 212 (pT212Tau). The experiment can be described thus: Tau phosphorylation at Threonine 212 (pT212Tau) in Dyrk1a- and MAPT-overexpressing HEK293T cells, sandwich ELISA. The conditions noted are these: Homo sapiens, HEK-293T, overnight (16-18 hours), read-out: Thr212 EC50. Format: cell-based. How it is done: HEK293T cells (transfectable human embryonic kidney cells) were cultured in DMEM medium supplemented with 10% FBS and 1% penicillin/streptomycin.
HEK293T cells were transiently transfected to overexpress Dyrk1a and microtubule-associated protein Tau (MAPT) genes. Specifically, Dyrk1a and MAPT expression vectors were obtained from OriGene (10 μg of each, catalog numbers SC314641 and RC216166, respectively). A MaxiPrep for each vector was ordered and received from GeneWiz, yielding 874.5 μg (resuspended at […]) of the Dyrk1a expression vector, and 898 μg (resuspended at […]) of MAPT.
HEK293T cells were seeded at 1.0×10^7 cells in 10 mL per T-75 flask. […] One T-75 flask was designated as a no-vector negative control for pT212Tau signal.
After 4-6 hours of incubation in transfection reagents, transiently double transfected HEK293T cells were dissociated by treatment with trypsin EDTA and seeded at 1.0×10^5 cells in 100 μL per well in 96-well plates. No-vector negative controls were seeded in separate 96-well plates to avoid the risk of the negative control cells picking up the overexpression during incubation. At the time of seeding, DMSO-resuspended Samumed compounds were dispensed to eight wells as a serial dilution from 10 μM to 4.6 nM final concentration in medium, or at 0.12 μM to 0.05 nM with particularly potent compounds. Cells were exposed to the representative compounds overnight (16-18 hours) in a 37° C. incubator.
96-Well flat-bottom plates were coated with 100 μL per well anti-HT7 capture antibody (ThermoFisher, MN1000) diluted 1:300 in 1×PBS at 4° C. overnight, with shaking at 500 rpm. After overnight capture antibody incubation, coated plates were washed four times with 200 μL per well of 1×PBS-0.05% Tween-20, and blocked for 1 hour with 200 μL per well of 1×PBS with 2% BSA. After 1 hour of blocking, plates were washed four times with 200 μL per well of 1×PBS-0.05% Tween-20, prior to sample loading.
Wells of compound-treated cells were visually checked for cell death before being washed with 200 μL per well of 1×DPBS supplemented with phosphatase inhibitor diluted to 1×. Cells were then lysed with 100 μL 1×RIPA buffer supplemented with phosphatase and protease inhibitors (each diluted to a final 1×). Cells were shaken at 500 rpm, 4° C. for 20 minutes prior to further lysis (via manual scraping) and transfer to 96-well V-bottom collection plates (Corning, 3894). V-bottom plates were centrifuged at 4000 rpm, 4° C., for 15 minutes, and 100 μL of lysate supernatant from each well was directly tested for pT212Tau signal by sandwich ELISA.
Specifically, lysates were directly transferred to the coated and blocked ELISA plates for 2 hours before plates were washed four times with 200 μL per well of 1×PBS-0.05% Tween-20 and probed with 100 μL per well of anti-pT212Tau antibody (ThermoFisher, 44-740G) diluted 1:200 in 1×PBS for 2 hours. Plates were washed four times with 200 μL per well of 1×PBS-0.05% Tween-20 and probed with 100 μL per well of anti-rabbit/HRP conjugate (Cell Signaling Technology, 7074S) diluted 1:600 in 1×PBS for 1 hour. Plates were washed four times with 200 μL per well of 1×PBS-0.05% Tween-20 before 100 μL per well of TMB substrate solution (ThermoFisher, N301) was added. When colour development was observed, 100 μL per well of stop solution (ThermoFisher, N600) was added, and colorimetric detection of pT212Tau signal was read at 450 nm with the Cytation 3 Cell Imaging Multi-Mode Reader (BioTek). The signal was used to plot, draw the curves fitting, and determine the EC50 values in GraphPad Prism for tested representative compounds.
On the technique in general: In an ELISA, binding on a coated surface is turned into a signal by an enzyme label.

For experiment [2], the system named is SW480 colon carcinoma cells. Put plainly: Cell viability assay (CellTiter-Glo). The settings on record: Homo sapiens; for EC50: SW480, 96 h; for inhibition at 10 µM: SW480, read-out: percent inhibition at 10 μM.
Experiment [3] concerns the target GSK3β kinase (Homo sapiens, UniProt P49841). Put plainly: GSK3β kinase activity (Ser/Thr 09 peptide Z-lyte FRET assay). Format: biochemical. The conditions noted are these: recombinant kinase, 46 μM ATP, one hour at room temperature; read-out: EC50.
Experiment [4] deals with α-smooth muscle actin (aSMA) positive LL29 cells. Put plainly: Inhibition of the fibrotic process: αSMA staining in TGF-β1 treated LL29 fibroblasts from IPF patients. The conditions noted are these: Homo sapiens, Fibroblast; for EC50: 96 h; for inhibition at 10 µM: read-out: percentage in parentheses after EC50 >10.
In experiment [5] the target is DYRK1A kinase (Homo sapiens, UniProt Q13627). The experiment can be described thus: DYRK1A kinase activity (Ser/Thr 18 peptide Z-lyte FRET assay).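 Also: kinase activity read as coumarin/fluorescein emission ratio after development step, with unphosphorylated and phosphorylated peptide forms setting 0% and 100% controls, values from dose-response curves.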 The settings on record: recombinant DYRK1A, 30 μM ATP, one hour at room temperature. Format: biochemical.
In experiment [6] the test system is IL-6. The experiment can be described thus: IL-6 inhibition in LPS-stimulated human peripheral blood mononuclear cells (HTRF). The settings on record: Homo sapiens, PBMC; for EC50: 22 h; for inhibition at 10 µM: read-out: percentage in parentheses after EC50 >10. For orientation: TR-FRET usually uses a lanthanide donor and a delayed reading to cut background.
For experiment [7], the system named is Wnt-responsive Sp5-Luc reporter in SW480 colon carcinoma cells. Put plainly: Screening assay for Wnt activity (Sp5-Luc reporter gene assay). The conditions noted are these: Homo sapiens; for EC50: SW480; for inhibition at 10 µM: SW480, read-out: percent inhibition at 10 μM. Background: A reporter such as luciferase makes a cellular process visible.
Protocol: The screening assay for Wnt activity is described as follows.
SW480 colon carcinoma cells were transduced with a lentiviral vector expressing luciferase with a human Sp5 promoter consisting of a sequence of eight TCF/LEF binding sites. […] These stably transduced SW480 cells were expanded in cell culture and used for all further screening activities. Each compound was dissolved in DMSO as a 10 mM stock and used to prepare compound source plates. Serial dilution (1:3, 10-point dose-response curves starting from 10 μM) and compound transfer was performed using the ECHO 550 (Labcyte, Sunnyvale, Calif.) into 384-well white solid bottom assay plates (Greiner Bio-One) with appropriate DMSO backfill for a final DMSO concentration of 0.1%. […] Following incubation, 15 μl of BriteLite Plus luminescence reagent (Perkin Elmer) was added to each well of the 384-well assay plates. The plates were placed on an orbital shaker for 2 min and then luminescence was quantified using the Envision (Perkin Elmer) plate reader.
Experiment [8] concerns secreted cytokines TNFα, IL-6 and KC-GRO. Put plainly: Secreted cytokines in Lipopolysaccharide-stimulated BV-2 cells (Table 9 does not say which cytokine). Format: cell-based, mouse. The conditions noted are these: Mus musculus, BV-2, 5 h; read-out: EC50.
Protocol: BV-2 cells (mouse microglial cells) were cultured in 1:1 DMEM medium supplemented with 10% FBS, and 1% penicillin/streptomycin.
BV-2 cells are plated at 35,000 cells/well in a volume of 100 μl for at least 4 hours before compounds are added. […] Compounds were added to cells overnight. […] Supernatant is removed and saved for further cytokine detection. The original plates with seeded cells were tested for cytotoxicity by measure of adenosine triphosphate (ATP) release by adding CellTiter-Glo® diluted 1:4 in distilled water (G7573, Promega) and transferring lysed cells to a completely black 96-well plate to be read with the Cytation3. Supernatant was then diluted 1:2 with a diluent from V-PLEX cytokine Kit and directly tested for the secreted cytokines TNFα, IL-6 and KC-GRO using electrochemiluminescence (Meso Scale Discovery). The standard curve for each cytokine was used to convert the electrochemiluminescent signal into pg of protein per mL.
Experiment [9] has as its system Tau phosphorylation at Ser396 (pSer396). The experiment can be described thus: Tau phosphorylation at Ser396 (pSer396) in SH-SY5Y cells, ELISA / western blot.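 Also: decrease in pSer396 Tau measured in lysates of treated cells by colorimetric ELISA or chemiluminescent western blot, same pSer396 antibody for both.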 Format: cell-based, human. The conditions noted are these: Homo sapiens; SH-SY5Y cells, overnight (16-18 h); read-out: pSer396 Tau EC50.
Protocol: Two days before treatment, cells were seeded onto 96 well plates at 5×10^4 cells/well.
The above synthesized compounds were screened using the cell assay procedure to assess decrease Tau phosphorylation at Ser396 (pSer396) described below.
Cells were lysed with RIPA buffer complemented with phosphatase and protease inhibitors then lysates were spun down at 12,000 g for 10 min to remove any cellular debris.

Sequence of GSK3β kinase (P49841 whole entry): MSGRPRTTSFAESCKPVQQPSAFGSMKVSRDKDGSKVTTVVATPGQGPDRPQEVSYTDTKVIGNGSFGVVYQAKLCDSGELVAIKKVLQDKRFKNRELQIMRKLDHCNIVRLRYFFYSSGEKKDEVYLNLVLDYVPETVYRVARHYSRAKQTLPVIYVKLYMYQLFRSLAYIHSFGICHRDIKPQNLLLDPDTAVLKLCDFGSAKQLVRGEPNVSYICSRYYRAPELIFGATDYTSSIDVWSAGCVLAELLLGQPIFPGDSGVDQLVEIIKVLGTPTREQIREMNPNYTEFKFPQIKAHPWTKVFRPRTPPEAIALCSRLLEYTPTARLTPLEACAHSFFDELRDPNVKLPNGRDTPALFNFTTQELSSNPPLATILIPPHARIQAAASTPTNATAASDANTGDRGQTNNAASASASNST

On to `Cc1ncc(-c2ccc3cnc(NC(=O)N4CCC(N5CCOCC5)CC4)cc3n2)o1` [Compound 566, N-(2-(2-Methyloxazol-5-yl)-1,6-naphthyridin-7-yl)-4-morpholinopiperidine-1-carboxamide], for which the EC50 in experiment [1] was 6600 nM; in [2] it was over 10000 nM; in experiment [3], 621 nM; in experiment [4], over 10000 nM; in [5] it was 77 nM; in experiment [6], over 10000 nM. The same compound showed an EC50 in [7] of over 10000 nM. Also, the inhibition at 10 µM in experiment [2] stood at 19.7%; in experiment [4] it was 35.2%; in [6] it was 3.6%; in experiment [7], 33.2%.
As to `Cn1ncc(-c2ccc3cnc(NC(=O)C4CC5(C4)CN(CCF)C5)cc3n2)c1CN1CCCCC1` [Compound 280, 2-(2-Fluoroethyl)-N-(2-(1-methyl-5-(piperidin-1-ylmethyl)-1H-pyrazol-4-yl)-1,6-naphthyridin-7-yl)-2-azaspiro[3.3]heptane-6-carboxamide], the EC50 is 32 nM in [1]; 2410 nM in [2]; 335 nM in [3]; 2520 nM in experiment [4]; 150 nM in [5]; 5710 nM in experiment [6]. Also, the EC50 in experiment [7] is over 10000 nM. For the same compound, in experiment [7], the inhibition at 10 µM was 33.7%.
Take `CN1CCC(Nc2cc(C(=O)Nc3ncc4ccc(-c5cnn(C)c5)cc4n3)ccn2)CC1` [Compound 4569, N-(7-(1-Methyl-1H-pyrazol-4-yl)quinazolin-2-yl)-2-((1-methylpiperidin-4-yl)amino)isonicotinamide]: the concentration giving a half-maximal response (EC50) is 238 nM in experiment [1]; 2220 nM in [2]; over 10000 nM in [3]; 4090 nM in [4]; 8 nM in experiment [5]; over 10000 nM in experiment [6]. The compound further yielded an EC50 in experiment [7] of 570 nM. Moreover, the inhibition at 10 µM in experiment [6] was 42.3%.
For `CN1CCCN(CC(=O)Nc2cc3nc(-c4cnn(C)c4)ccc3cn2)CC1` [Compound 105, 2-(4-Methyl-1,4-diazepan-1-yl)-N-(2-(1-methyl-1H-pyrazol-4-yl)-1,6-naphthyridin-7-yl)acetamide], the EC50 in experiment [1] is 263 nM; in experiment [2], over 10000 nM; in [3], 541 nM; in [4], over 10000 nM; in [8] it was 1130 nM; in [5] it was 71 nM. Also, the EC50 in experiment [6] and in experiment [7] was over 10000 nM throughout. In addition, the inhibition at 10 µM in experiment [2] was found to be 38.9%; in [4] it was 16.9%; in [6], 2.6%; in experiment [7], 45.4%.
Take `Cc1nnc(-c2ccc3cnc(NC(=O)CN4C5CCC4CC5)nc3c2)s1` [Compound 1632, 2-(7-Azabicyclo[2.2.1]heptan-7-yl)-N-(7-(5-methyl-1,3,4-thiadiazol-2-yl)quinazolin-2-yl)acetamide]: the EC50 in [1] was 402 nM; in experiment [2], over 10000 nM; in experiment [3], 943 nM; in experiment [4], over 10000 nM; in [5] it was 500 nM; in [6], over 10000 nM. The compound further showed an EC50 in experiment [7] of over 10000 nM. For the same compound, the inhibition at 10 µM was 21.3% in [2], 28.8% in experiment [4], 4.2% in [6] and 19.2% in [7].
Consider `Cn1cncc1-c1ccc2cnc(NC(=O)c3ccc(F)cc3)nc2c1` [Compound 1354, 4-Fluoro-N-(7-(1-methyl-1H-imidazol-5-yl)quinazolin-2-yl)benzamide], for which the EC50 in [1] is 6 nM; in experiment [2], 5340 nM; in experiment [3], 1170 nM; in [4] it was 5090 nM; in experiment [5], 2 nM; in experiment [6] it was over 10000 nM. In addition, the EC50 in [7] was 2380 nM. The inhibition at 10 µM in experiment [6] came to 39.9%.
Turning to `Cn1ncc(-c2cnc3cnc(NC(=O)C4CC5(C4)CN(CCF)C5)cc3c2)c1CN1CCCCC1` [Compound 3000, 2-(2-Fluoroethyl)-N-(3-(1-methyl-5-(piperidin-1-ylmethyl)-1H-pyrazol-4-yl)-1,7-naphthyridin-6-yl)-2-azaspiro[3.3]heptane-6-carboxamide], the EC50 in experiment [2] turned out to be 5950 nM; in [3] it was 166 nM; in experiment [4], 9890 nM; in [8] it was 307 nM; in [5], 10 nM; in experiment [9], 1830 nM. In addition, the concentration giving a half-maximal response (EC50) in experiment [6] stood at 2260 nM; in experiment [7], 1950 nM.
Consider `Cn1ncc(-c2ccc3cnc(NC(=O)C4CC5(C4)CN(CCF)C5)nc3c2)c1CN1CCCCC1` [Compound 1186, 2-(2-Fluoroethyl)-N-(7-(1-methyl-5-(piperidin-1-ylmethyl)-1H-pyrazol-4-yl)quinazolin-2-yl)-2-azaspiro[3.3]heptane-6-carboxamide], for which the EC50 in [2] was over 10000 nM; in experiment [3], 402 nM; in experiment [4], over 10000 nM; in experiment [8], 5600 nM; in experiment [5], 42 nM; in experiment [9] it was 5400 nM. Besides, the 50% effective concentration (EC50) in experiment [6] and in [7] was over 10000 nM throughout. For the same compound, the inhibition at 10 µM in [2] is 35.2%; in [4] it was 24.5%; in experiment [6] it was 6.7%; in experiment [7], 35.8%.
For `Cc1ncc(-c2ccc3cnc(NC(=O)C4CCN(C5COC5)CC4)cc3n2)s1` [Compound 4560, N-(2-(2-Methylthiazol-5-yl)-1,6-naphthyridin-7-yl)-1-(oxetan-3-yl) piperidine-4-carboxamide], the EC50 in experiment [2] is over 10000 nM; in [3] it was 127 nM; in experiment [4], 779 nM; in experiment [8], 117 nM; in experiment [5], 14 nM; in experiment [9] it was 992 nM. In addition, the EC50 in experiment [6] and in [7] was over 10000 nM in each case. For the same compound, the figures for the inhibition at 10 µM in experiment [2], in experiment [6] and in [7] were 37.5%, 2.7% and 49.7%, respectively.
